Reference: BindingDB's records for doi:10.3109/14756366.2011.590804 (University of Karachi, 2012)

molecular target: Beta-glucuronidase (Escherichia coli (strain K12), UniProt P05804); assay: β-Glucuronidase Inhibition Assay; details: pH 7; 37 °C
Procedure: β-Glucuronidase inhibitory activity was evaluated by a biochemical assay, based on the measurement of the absorbance of p-nitrophenol at 405 nm, produced from the enzymatic hydrolysis of chromogenic substrate [Choudhary et al., Steroids, 74:1040-1044; Khan et al., Chem. Pharm. Bull., 50:1443-1446]. The reaction mixture, consisting of 5 μL of test compound solution, 185 μL of 0.1 M acetate buffer (pH 7.0) and 10 μL β-glucuronidase solution, was kept for 30 min at 37°C. The total reaction volume being 250 μL. 50 μL of p-nitrophenyl-β-D-glucuronide was added to each plate. A multiplate reader was used to read the absorbance at 405 nm.

Chain of Beta-glucuronidase (P05804 whole entry): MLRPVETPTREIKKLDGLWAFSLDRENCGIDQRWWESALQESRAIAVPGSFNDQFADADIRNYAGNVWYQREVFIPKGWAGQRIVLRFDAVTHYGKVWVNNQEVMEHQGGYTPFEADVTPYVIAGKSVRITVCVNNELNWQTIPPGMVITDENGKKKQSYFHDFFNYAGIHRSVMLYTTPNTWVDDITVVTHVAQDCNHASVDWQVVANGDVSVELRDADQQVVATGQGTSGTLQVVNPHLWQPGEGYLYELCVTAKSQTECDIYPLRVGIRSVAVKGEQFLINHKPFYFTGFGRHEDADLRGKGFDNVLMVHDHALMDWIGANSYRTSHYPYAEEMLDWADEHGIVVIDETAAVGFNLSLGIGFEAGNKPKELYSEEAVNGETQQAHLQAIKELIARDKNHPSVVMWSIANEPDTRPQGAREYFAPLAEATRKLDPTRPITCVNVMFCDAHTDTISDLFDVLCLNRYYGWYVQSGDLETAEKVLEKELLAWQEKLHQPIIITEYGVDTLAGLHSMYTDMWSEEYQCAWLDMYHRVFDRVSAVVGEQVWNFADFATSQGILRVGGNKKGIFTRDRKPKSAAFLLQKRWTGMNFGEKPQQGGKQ

Structure (SMILES)	IC50
C[C@]12CCC(=O)C=C1CC[C@@H]1[C@@H]2CC[C@]2(C)C(=O)CC[C@@H]12 [Androst-4-en-3,17-dione, 2]	430 µM
C[C@]12CC[C@H]3[C@@H]([C@@H](O)CC4=C[C@@H](O)CC[C@@]43C)[C@@H]1CC[C@@H]2O [Androst-4-ene-3β,7β,17β-triol (8)]	191 µM
C[C@]12CC[C@H](O)C=C1C(=O)C[C@@H]1[C@@H]2CC[C@]2(C)C(=O)CC[C@@H]12 [Androst-4-ene-3β-ol-6,17-dione (7)]	222 µM
C[C@]12CCC(=O)CC1CC[C@@H]1[C@@H]2CC[C@]2(C)C(=O)CC[C@@H]12 (some centres undefined) [Androstane-3,17-dione (2)]	374 µM
